≈ marks a conversion by molar mass, not a printed value.
How the values were obtained:
Aspergillus niger [1] = experiment: MIC in RPMI medium, A. niger; format: cell-based; settings: 24-48 hrs at 35° C., >80% growth inhibition, read-out: MIC grade, A. niger
Procedure: (§1) Between 1 and 5 mgs of compound were accurately weighed out into a sterile Eppendorf tube. The compound was dissolved in DMSO to give a solution containing 5 mg/mL. Tubes were stored at −20° C. until required.
(§2) On the day of testing thawed solutions were vortex mixed to ensure homogeneity. 30 μL of solution was removed and added to 570 μL of sterile water in a separate sterile Eppendorf. The thoroughly mixed solution was used to prepare a series of doubling dilutions in water, in a deep well plate. Thirteen replicate plates were prepared using a Minitrak by aspirating 20 μL from each well into eleven clear polystyrene 96 well plates.
(§3) Assays were also performed in RPMI medium. To perform MIC tests in this medium, dilutions of compounds are prepared in microtitre plates as described above. Fungal strains to be tested are grown and harvested in an identical manner to that described above, and each organism suspension was diluted in RPMI medium, containing 2% glucose and 0.135 M MOPS buffer (pH 7.0) to 0.5-2×10^4 cfu/mL, rather than in YAG medium. 80 μL of an organism suspension was added to each well of the plate containing drug dilutions.
(§4) All plates were incubated for 24-48 hrs at 35° C. Growth was assessed by monitoring the optical density at 485 nm for each well. […] The following organisms were tested: Aspergillus flavus, Aspergillus fumigatus AF293 and AF210, Aspergillus niger and Aspergillus terreus AT4 and AT49.

Aspergillus flavus [2] = experiment: MIC in YAG medium, A. flavus; format: cell-based; settings: 24 hrs at 35° C., >70% growth inhibition, read-out: MIC grade, A. flavus
Procedure: as §1, §2
(§5) Spores of Aspergillus spp. (Aspergillus fumigatus [two strains], Aspergillus terreus [two strains], Aspergillus niger and Aspergillus flavus) were harvested from cultures grown on Sabarauds agar for 5 days, and resuspended in PBS/Tween 80 to approx 1×10^7 cfu/mL. Each organism suspension was diluted in YAG medium (1% glucose, 1% ammonium chloride and 0.5% yeast extract) to 0.5-2×10^4 cfu/mL. 80 μL of an organism suspension was added to each well of the plate containing drug dilutions.
(§6) All plates were incubated for 24 hrs at 35° C. Growth was assessed by monitoring the optical density at 485 nm for each well. The MIC of a compound is the lowest drug concentration that inhibits growth of an organism by >70% compared with a drug free control. MICs are recorded as mg/L. In cases where the MIC of an organism is […] the MIC is repeated using a concentration range of 0.5-0.0005 mg/L.

Aspergillus fumigatus = experiment: MIC in YAG medium, A. fumigatus; format: cell-based; settings: 24 hrs at 35° C., >70% growth inhibition, read-out: MIC grade, A. fumigatus
Procedure: as §1, §2, §5, §6

Aspergillus terreus AT4 = experiment: MIC in RPMI medium, A. terreus; format: cell-based; settings: 24-48 hrs at 35° C., >80% growth inhibition, read-out: MIC grade, A. terreus
Procedure: as §1, §2, §3, §4

Aspergillus terreus AT49 = experiment: MIC in RPMI medium, A. terreus 49; format: cell-based; settings: 24-48 hrs at 35° C., >80% growth inhibition, read-out: MIC grade, A. terreus 49
Procedure: as §1, §2, §3, §4

[3] = biological target: Recombinant A. fumigatus DHODH (Aspergillus fumigatus, UniProt Q4X169); experiment: DHODH inhibition screen (DCIP reduction, 600 nm), A. fumigatus enzyme; format: biochemical
Sequence of Recombinant A. fumigatus DHODH (Q4X169 entry or part of it): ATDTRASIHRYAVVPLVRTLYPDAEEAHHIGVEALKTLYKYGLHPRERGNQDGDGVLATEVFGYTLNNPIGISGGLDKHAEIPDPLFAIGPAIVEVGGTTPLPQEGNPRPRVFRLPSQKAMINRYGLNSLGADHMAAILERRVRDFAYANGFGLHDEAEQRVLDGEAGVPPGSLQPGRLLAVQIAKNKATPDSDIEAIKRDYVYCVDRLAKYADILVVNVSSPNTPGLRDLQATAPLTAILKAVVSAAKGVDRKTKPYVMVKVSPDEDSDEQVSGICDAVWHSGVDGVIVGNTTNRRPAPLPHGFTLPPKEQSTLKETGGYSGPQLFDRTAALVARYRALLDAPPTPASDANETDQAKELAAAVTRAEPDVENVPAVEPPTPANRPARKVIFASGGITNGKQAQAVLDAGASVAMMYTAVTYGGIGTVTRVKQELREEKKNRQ
Procedure: (§7) 1. The following buffer and stock solution were prepared:
Buffer A: 62.5 mM TrisHCl (pH8.0), 150 mM NaCl, 10% v/v glycerol
DHO/Coenzyme Q2/DCIP solution: 19.848 mg dihydroorotate (DHO; Sigma) was dissolved in 160 μl DMSO. Coenzyme Q2 (Sigma) was dissolved in DMSO to give a concentration of 10 mg/ml. 7.236 mg 2,6-dichloroindophenol (DCIP; Sigma) was dissolved in 160 μl DMSO. The stock solution was made with 127.36 μl DHO, 127.36 μl DCIP and 318.4 μl Coenzyme Q2, made up to 80 ml with Buffer A. Final concentrations in assay wells were; DHO, 500 μM; Coenzyme Q, 50 μM; DCIP, 100 μM.
2. Compounds were aliquotted into 384-well microtitre plates at a range of dilutions to give final concentrations in the assay of […]. Duplicate sets of plates were used such that one set received enzyme while a control set received no enzyme. Since compounds are frequently dissolved in DMSO or a DMSO/water mixture, assays were set up to give a final concentration of 1% (v/v) DMSO in wells.
3. Recombinant A. fumigatus DHODH was suspended in Buffer A to give a concentration of 1435.8 ng protein in 20 μl. Then 20 μl of DHODH solution was added to all the +enzyme plates and 20 μl of Buffer A was added to all the control −enzyme plates.
(§8) 4. 20 μl of DHO/Coenzyme Q2/DCIP solution was added to all the wells, after which plates were incubated at room temperature for […] and then read on a Tecan Safire spectrophotometer at 600 nm.
Recombinant DHODH from human or C. albicans was assayed in the same way. It is necessary to adjust the enzyme concentration and reaction time to take into account variations in activity of enzyme batches, thus the incubation time was 20 minutes for the C. albicans enzyme and 34 minutes for the human enzyme. Compounds are screened against a fungal and human enzyme to identify compounds which are selective for the fungal enzyme.

Aspergillus flavus [4] = experiment: MIC in RPMI medium, A. flavus; format: cell-based; settings: 24-48 hrs at 35° C., >80% growth inhibition, read-out: MIC grade, A. flavus
Procedure: as §1, §2, §3, §4

A. terreus 49 = experiment: MIC in YAG medium, A. terreus 49; format: cell-based; settings: Aspergillus terreus, 24 hrs at 35° C., >70% growth inhibition, read-out: MIC grade, A. terreus 49
Procedure: as §1, §2, §5, §6

[5] = system: Aspergillus fumigatus AF293; experiment: MIC in RPMI medium, A. fumigatus; format: cell-based; settings: 24-48 hrs at 35° C., >80% growth inhibition, read-out: MIC grade, A. fumigatus
Procedure: as §1, §2, §3, §4

A. fumigatus 210 = experiment: MIC in YAG medium, A. fumigatus 210; format: cell-based; settings: Aspergillus fumigatus, 24 hrs at 35° C., >70% growth inhibition, read-out: MIC grade, A. fumigatus 210
Procedure: as §1, §2, §5, §6

[6] = system: Aspergillus fumigatus AF210; experiment: MIC in RPMI medium, A. fumigatus 210; format: cell-based; settings: 24-48 hrs at 35° C., >80% growth inhibition, read-out: MIC grade, A. fumigatus 210
Procedure: as §1, §2, §3, §4

Aspergillus niger [7] = experiment: MIC in YAG medium, A. niger; format: cell-based; settings: 24 hrs at 35° C., >70% growth inhibition, read-out: MIC grade, A. niger
Procedure: as §1, §2, §5, §6

[8] = biological target: T1, Recombinant DHODH from human (Homo sapiens, UniProt Q02127); experiment: DHODH inhibition screen (DCIP reduction, 600 nm), human enzyme; format: biochemical; settings: Table 3, read-out: IC50 values for Compound Examples 1 to 15 identified from screens, Human
T1 construct: His-tag; NusA (Nus-tag) fusion of vector pET43.1 (own knowledge of the vector) (N); made in house; host or cells: E. coli BL21 DE3
T1 sequence (Q02127 31-395 limits assumed): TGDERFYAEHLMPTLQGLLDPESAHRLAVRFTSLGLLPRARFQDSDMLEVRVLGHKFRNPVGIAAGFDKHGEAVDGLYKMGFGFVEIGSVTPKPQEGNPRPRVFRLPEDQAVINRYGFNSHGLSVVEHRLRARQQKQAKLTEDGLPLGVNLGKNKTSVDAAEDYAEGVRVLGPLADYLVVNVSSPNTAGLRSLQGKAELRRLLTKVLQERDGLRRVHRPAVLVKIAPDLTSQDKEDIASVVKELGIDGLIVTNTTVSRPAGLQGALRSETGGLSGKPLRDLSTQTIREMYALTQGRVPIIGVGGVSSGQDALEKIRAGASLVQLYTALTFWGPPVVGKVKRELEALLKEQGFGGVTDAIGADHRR
Procedure: as §7
Coenzyme Q2 (Sigma) was dissolved in DMSO to give a concentration of 10 mg/ml. […] The stock solution was made with 127.36 μl DHO, 127.36 μl DCIP and 318.4 μl Coenzyme Q2, made up to 80 ml with Buffer A. Final concentrations in assay wells were; DHO, 500 μM; Coenzyme Q, 50 μM; DCIP, 100 μM.
2. […] Duplicate sets of plates were used such that one set received enzyme while a control set received no enzyme.
3. […] Then 20 μl of DHODH solution was added to all the +enzyme plates and 20 μl of Buffer A was added to all the control −enzyme plates.
as §8
Recombinant DHODH from human or C. albicans was assayed in the same way. It is necessary to adjust the enzyme concentration and reaction time to take into account variations in activity of enzyme batches, thus the incubation time was 20 minutes for the C. albicans enzyme and 34 minutes for the human enzyme.

Aspergillus terreus = experiment: MIC in YAG medium, A. terreus; format: cell-based; settings: 24 hrs at 35° C., >70% growth inhibition, read-out: MIC grade, A. terreus
Procedure: as §1, §2, §5, §6

SMILES | MIC (Aspergillus niger [1]) | MIC (Aspergillus flavus [2]) | MIC (Aspergillus fumigatus) | MIC (Aspergillus terreus AT4) | MIC (Aspergillus terreus AT49) | IC50 [3] | MIC (Aspergillus flavus [4]) | MIC (A. terreus 49) | MIC [5] | MIC (A. fumigatus 210) | MIC [6] | MIC (Aspergillus niger [7]) | IC50 [8] | MIC (Aspergillus terreus)
COc1ccccc1-n1c(SC(C)C)nc2cccc(OC)c2c1=O [Compound Example 4, 2-Isopropylsulfanyl-5-methoxy-3-(2-methoxy-phenyl)-3H-quinazolin-4-one] | < 1 µg/mL | 1 to 10 µg/mL (≈ 2.81 to 28.1 µM) | < 1 µg/mL | 1 to 10 µg/mL (≈ 2.81 to 28.1 µM) | 1 to 10 µg/mL (≈ 2.81 to 28.1 µM) | 4.95 µM | > 10 µg/mL | < 1 µg/mL | < 1 µg/mL | < 1 µg/mL | 1 to 10 µg/mL (≈ 2.81 to 28.1 µM) | < 1 µg/mL | 73 µM | < 1 µg/mL
CC(C)Sc1nc2ccccc2c(=O)n1-c1ccccc1N(C)C [Compound Example 11, 3-(2-Dimethylamino-phenyl)-2-isopropylsulfanyl-3H-quinazolin-4-one] | 1 to 10 µg/mL (≈ 2.95 to 29.5 µM) | > 10 µg/mL | 1 to 10 µg/mL (≈ 2.95 to 29.5 µM) | > 10 µg/mL | > 10 µg/mL | 21.2 µM | > 10 µg/mL | 1 to 10 µg/mL (≈ 2.95 to 29.5 µM) | 1 to 10 µg/mL (≈ 2.95 to 29.5 µM) | 1 to 10 µg/mL (≈ 2.95 to 29.5 µM) | > 10 µg/mL | 1 to 10 µg/mL (≈ 2.95 to 29.5 µM) | 118 µM | 1 to 10 µg/mL (≈ 2.95 to 29.5 µM)
COc1ccccc1-n1c(SC(C)C)nc2ccccc2c1=O [Compound Example 7, 2-Isopropylsulfanyl-3-(2-methoxy-phenyl)-3H-quinazolin-4-one] | < 1 µg/mL | > 10 µg/mL | < 1 µg/mL | 1 to 10 µg/mL (≈ 3.06 to 30.6 µM) | 1 to 10 µg/mL (≈ 3.06 to 30.6 µM) | 11.6 µM | > 10 µg/mL | 1 to 10 µg/mL (≈ 3.06 to 30.6 µM) | 1 to 10 µg/mL (≈ 3.06 to 30.6 µM) | < 1 µg/mL | 1 to 10 µg/mL (≈ 3.06 to 30.6 µM) | < 1 µg/mL | 50.1 µM | < 1 µg/mL
CCSc1nc2ccccc2c(=O)n1-c1ccccc1CC [Compound Example 13, 3-(2-Ethyl-phenyl)-2-ethylsulfanyl-3H-quinazolin-4-one] | 1 to 10 µg/mL (≈ 3.22 to 32.2 µM) | > 10 µg/mL | 1 to 10 µg/mL (≈ 3.22 to 32.2 µM) | > 10 µg/mL | > 10 µg/mL | 36.2 µM | > 10 µg/mL | 1 to 10 µg/mL (≈ 3.22 to 32.2 µM) | 1 to 10 µg/mL (≈ 3.22 to 32.2 µM) | 1 to 10 µg/mL (≈ 3.22 to 32.2 µM) | > 10 µg/mL | < 1 µg/mL | 86.1 µM | 1 to 10 µg/mL (≈ 3.22 to 32.2 µM)
COc1ccccc1-n1c(SC(C)C)nc2ccc(C)cc2c1=O [Compound Example 2, 2-Isopropylsulfanyl-3-(2-methoxy-phenyl)-6-methyl-3H-quinazolin-4-one] | < 1 µg/mL | > 10 µg/mL | < 1 µg/mL | > 10 µg/mL | 1 to 10 µg/mL (≈ 2.94 to 29.4 µM) |  | > 10 µg/mL | < 1 µg/mL | 1 to 10 µg/mL (≈ 2.94 to 29.4 µM) | < 1 µg/mL | 1 to 10 µg/mL (≈ 2.94 to 29.4 µM) | < 1 µg/mL |  | < 1 µg/mL
COc1ccccc1-n1c(SC(C)C)nc2cc(C)ccc2c1=O [Compound Example 1, 2-Isopropylsulfanyl-3-(2-methoxy-phenyl)-7-methyl-3H-quinazolin-4-one] | > 10 µg/mL | < 1 µg/mL | < 1 µg/mL | < 1 µg/mL | < 1 µg/mL |  | > 10 µg/mL | < 1 µg/mL | 1 to 10 µg/mL (≈ 2.94 to 29.4 µM) | < 1 µg/mL | 1 to 10 µg/mL (≈ 2.94 to 29.4 µM) | < 1 µg/mL |  | < 1 µg/mL
COc1ccccc1-n1c(SC(C)C)nc2cccc(C)c2c1=O [Compound Example 3, 2-Isopropylsulfanyl-3-(2-methoxy-phenyl)-5-methyl-3H-quinazolin-4-one] | < 1 µg/mL | > 10 µg/mL | < 1 µg/mL | > 10 µg/mL | 1 to 10 µg/mL (≈ 2.94 to 29.4 µM) |  | > 10 µg/mL | < 1 µg/mL | 1 to 10 µg/mL (≈ 2.94 to 29.4 µM) | < 1 µg/mL | 1 to 10 µg/mL (≈ 2.94 to 29.4 µM) | < 1 µg/mL |  | < 1 µg/mL
